In EP1369114A1, “Use of tryptophan metabolites as pharmaceutical agents” (Terness, Peter, Priv. Doz. Dr., priority 2002, dated 2003):

Test system: CD3-stimulated T cells
Experiment: CD3 stimulation of T cells: metabolite titration curves, 3[H]-thymidin incorporation
Format: cell-based, human
Conditions: anti-CD3 antibody, 3 days
Excerpt: • (a) Allogeneic T-cell response. DCs were infected with recombinant IDO-adeno-GFP (DC-IDO-GFP), IDO-adeno (DC-IDO) or with control adenoviruses (DC-adeno) at a MOI (multiplicity of infection) up to 500 for 2 days. Lymphocytes (PBMCs) were separated from peripheral blood of healthy donors by density gradient centrifugation and typed for HLA antigens. Only HLA-DR-different responder lymphocytes were used for DC-induced stimulation. Native DCs only, lymphocytes only, native DCs + allogeneic lymphocytes, DC-IDO-GFP + allogeneic lymphoytes, DC-IDO + allogeneic lymphoytes, DC-adeno + allogeneic lymphocytes (each time 10^5 DC + 10^5 lymphocytes in 0.2ml medium) were cultured in RPMI 1640 medium (Gibco BRL Life Technologies GmbH, Eggenstein, Germany) with 10% fetal calf serum (FCS) (final tryptophan concentration 5.25 mg/l = 25.69 uM) and Penicillin G/Streptomycin. […] In order to verify whether IDO expression or adenovirus infection harm the DCs, 10^5 cells were infected with IDO-adeno-GFP, IDO-adenovirus, or adenovirus only at a stepwise decreasing MOI (500, 250, 125, ........ 3.9) and cell viability was measured in FACS following double staining with 7-AAD and anti-CD83 antibody-PE. The percentage of dead cells never exceeded 30% for any MOI following IDO-adeno-GFP- or IDO-adeno-infection and 40% following adenovirus(control)-infection. Moreover, these values were not higher than those of native DCs cultured for the same period of time. The experiment was repeated using ethidium bromide or trypan blue staining with virtually the same result. […] Peripheral blood lymphocytes were cultured (10^5 cells/well) in RPMI 1640 (10% FCS) with anti CD3 monoclonal antibody (Ortho Diagnostic Systems Inc., Raritan, NJ) (final dilution 1:200). […] Kynurenine, 3-hydroxykynurenine, anthranilic acid, 3-hydroxyanthranilic acid, and quinolinic acid (Sigma-Aldrich Chemie GmbH, Taufkirchen, Germany)(for all substances purity>98%) were dissolved in RPMI 1640 and added to cell cultures at various concentrations. In an other experiment, to determine whether the metabolites have an additive effect, equal concentrations of the compounds were mixed and added to the cultures. […] Positive controls consisted of CD3-stimulated cells without metabolites and negative controls of unstimulated cells. • (d) Restimulation of suppressed T cells. Lymphocytes (10^5 cells/well) were cultured in RPMI 1640 (10% FCS) with anti-CD3 monoclonal antibody (final dilution 1:200) and kynurenine (dilution series). […] Controls consisted of cells prestimulated with anti-CD3 but not pretreated with kynurenine. In an other restimulation experiment lymphocytes were stimulated with allogeneic DCs as described, in the presence (47-1500µM) or absence of kynurenine. Control cultures contained DCs or lymphocytes only. After 5 days the cells were extensively washed, and restimulated with an identical number of DCs derived from the same donor or from third party donors. […] In order to define the concentration of tryptophan which reduces T- lymphocyte proliferation in our test system, 10^5 lymphocytes were incubated in tryptophan-free RPMI 1640 medium (Gibco BRL Life Technologies) with or without 10% FCS, stimulated with anti-CD3 monoclonal antibody, and various amounts (0-38µM) of tryptophan were added. Unimpaired proliferation was observed down to 0.30µM (medium with FCS) and 1 .20µM (without FCS). Complete inhibition was not obtained at any concentration (positive control 100% proliferation; maximal suppression in medium with FCS: approx. 66% and without FCS: approx. 33%). All cell cultures were done in triplicate.
All tests were carried out in triplicate and results are given as mean +standard deviation. […] Thereafter, the concentration of substance giving 50% proliferation was calculated by regression.

Nc1ccccc1C(=O)CC(N)C(=O)O (centres unmarked) [kynurenine]
IC50 (Homo sapiens, T-cell, 72 h, single substance, read-out: I50 of proliferation of CD3-stimulated T cells): 553 µM | suppression of T cell response (in words): suppressed proliferation
